# Results taken from patent US20100144793A1, “NOVEL COMPOUNDS FOR THE TREATMENT OF DISEASES ASSOCIATED WITH AMYLOID OR AMYLOID-LIKE PROTEINS” (AC IMMUNE SA, priority 2006, published 2010).
# Counter-ions that a name gives are not always drawn. Like-named read-outs stand apart in the source and are kept apart here.
# Key:
# Type in all cases: biochemical
# preformed Aβ1-42 fibers = biological target: T1, preformed Aβ1-42 fibers (Homo sapiens, UniProt P05067); assay: Thioflavin T spectrofluorescence assay: disaggregation of preformed Aβ1-42 fibers; details: Table 5; 330 μM small molecule, 10:1 molar ratio to pre-aggregated Aβ1-42, additional 24 h at 37° C.; mean ± SD of two independent experiments
# T1 construct: Aβ1-42 lyophilized powder (Bachem) was reconstituted in hexafluoroisopropanol (HFIP) to 1 mM; purchased Bachem
# T1 sequence (P05067 672-713 limits assumed): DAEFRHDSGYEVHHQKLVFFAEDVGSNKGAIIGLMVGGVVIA
# Experimental: (§1) The objective of this example was to evaluate the capacity of the compounds of the invention to inhibit the aggregation of (Aβ)1-42 peptide and to disaggregate pre-aggregated Aβ1-42 using a thioflavin T spectrofluorescence assay.
# (§2) Aβ1-42 lyophilized powder (Bachem) was reconstituted in hexafluoroisopropanol (HFIP) to 1 mM. The peptide solution was sonicated for 15 min at room temperature, agitated overnight, and aliquots were placed into non-siliconized microcentrifuge tubes. The HFIP was then evaporated under a stream of argon. The resulting peptide film was dried under vacuum for 10 min, tightly sealed and stored at −80° C. until used.
# This solution was then allowed to aggregate at 37° C. for 24 h after which a small molecule and ThT were added to obtain a final concentration of 330 μM small molecule and 10 μM ThT. […] This solution was then incubated for additional 24 h at 37° C. The spectrofluorescence was then measured and % disaggregation calculated. Disaggregation is expressed as mean % disaggregation±1 standard deviation (SD) according to the same equation as for the inhibition of aggregation.
# Aβ1-42 = biological target: T2, Aβ1-42 (Homo sapiens, UniProt P05067); assay: Thioflavin T spectrofluorescence assay: inhibition of Aβ1-42 aggregation; details: 24 h
# T2 construct: Aβ1-42 lyophilized powder (Bachem) was reconstituted in hexafluoroisopropanol (HFIP) to 1 mM; purchased Bachem
# T2 sequence (P05067 672-713 limits assumed): as above
# Experimental: as §1, §2
# Aβ1-42 peptide film was dissolved in DMSO to reach 400 μM. Assay solution in PBS was prepared in non-siliconized incubation tubes to reach the following concentrations: 330 μM small molecule, 33 μM Aβ1-42, 10 μM thioflavin T (ThT), and 12.8% DMSO. Therefore, the final molar ratio of small molecule to Aβ1-42 was 10:1. A positive control without a small molecule was prepared to measure maximum RFU. A negative control without Aβ1-42 was prepared for each small molecule. 3-aminopyrazole trimer (Trimer) was tested in all assays to ascertain reproducibility between independent experiments. The solutions were then incubated for 24 h at 37° C., and the spectrofluorescence (relative fluorescence units; RFU) read in six replicates in black 384-well assay plates (Perkin-Elmer) on a Perkin-Elmer FluoroCount spectrofluorometer. Inhibition of aggregation is expressed as mean % inhibition±1 standard deviation (SD) according to the following equation: […]
# [1] = biological target: T3, Oregon Green labeled Aβ(1-42) (Homo sapiens, UniProt P05067); assay: FCS-assay with 5 nM Oregon Green labeled Aβ-peptide (disaggregation of preformed aggregates)
# T3 construct: DMSO-stock solutions of Oregon Green labeled Aβ(1-42) 1:1 with deionized water
# T3 sequence (P05067 672-713 limits assumed): as above
# Experimental: In order to analyse the disaggregating properties of the compounds, preformed aggregates were used, which were induced straight before the FCS-measurement by diluting low concentrated (500 nM) DMSO-stock solutions of Oregon Green labeled Aβ(1-42) 1:1 with deionized water. The final concentration of Oregon Green labeled Aβ-peptide was 5 nM in 1×PBS and 3% DMSO.
# To improve the reproducibility of the measurements of the concentration dependencies all samples were prepared fourfold.
# [2] = read-out: Percentage of the “number of peaks” value compared to the control reaction without added ligand
# [3] = read-out: Percentage of the “peaks × height“ value compared to the control reaction without added ligand
SMILES,% disaggregation (preformed Aβ1-42 fibers),inhibition at 330 µM (Aβ1-42),"remaining activity at 0.01 µM [1, 2]","remaining activity at 0.1 µM [1, 2]","remaining activity at 0.2 µM [1, 2]","remaining activity at 1 µM [1, 2]","remaining activity at 5 µM [1, 2]","remaining activity at 25 µM [1, 2]","remaining activity at 100 µM [1, 2]","remaining activity at 0.01 µM [1, 3]","remaining activity at 0.1 µM [1, 3]","remaining activity at 0.2 µM [1, 3]","remaining activity at 1 µM [1, 3]","remaining activity at 5 µM [1, 3]","remaining activity at 25 µM [1, 3]","remaining activity at 100 µM [1, 3]"
"Clc1ccc(-c2cc(NCCNc3cc(-c4cccs4)[nH]n3)n[nH]2)cc1 [Compound 1ah, N-(5-(4-Chlorophenyl)-1H-pyrazol-3-yl)-N′-(5-(thiophen-2-yl)-1H-pyrazol-3-yl)ethane-1,2-diamine bishydrochloride]",88.8 ± 1.6%,89.1 ± 2.5%,44.4%,61.1%,60.8%,83.7%,82.6%,75%,40.9%,38.9%,44.8%,69.3%,136%,112%,254%,143%
"Cc1ccc(-c2cc(NCCNc3cc(-c4ccc(C)cc4)[nH]n3)n[nH]2)cc1 [Compound 1d, N^1,N^2-bis(5-p-Tolyl-1H-pyrazol-3-yl)ethane-1,2-diamine bishydrochloride]",77.1 ± 2.5%,88.3 ± 1%,,,72.8%,,,,,,,83.1%,,,,
"Clc1ccc(-c2cc(NCCNc3cc(-c4ccc(Cl)cc4)[nH]n3)n[nH]2)cc1 [Compound 1f, N^1,N^2-bis(5-(4-Chlorophenyl)-1H-pyrazol-3-yl)ethane-1,2-diamine bishydrochloride]",78.4 ± 1.7%,86.5 ± 7.4%,,,55.9%,,,,,,,101%,,,,
"Brc1ccc(-c2cc(NCCNc3cc(-c4ccc(Br)cc4)[nH]n3)n[nH]2)cc1 [Compound 1u, N^1,N^2-bis(5-(4-Bromophenyl)-1H-pyrazol-3-yl)ethane-1,2-diamine bishydrochloride]",78.8 ± 5.1%,77.2 ± 1.5%,,,58%,60%,47.5%,45%,35%,,,59.2%,62.4%,48%,49.2%,27.2%
